Laboratory results as given in patent US6534447B1, “Herbicidal pyridine compounds” (BASF Aktiengesellschaft, priority 1999, dated 2003).

Assays:
Assay type in all cases: in vivo
[1] = system: Stellaria media (STEME, chickweed); test: Post-emergence herbicidal evaluation; conditions: 3 weeks after treatment
Experimental: (§1) These acetone solutions are diluted with water and the resulting formulations applied at dosage levels equivalent of about 0.025 to 0.4 kg per hectare of test compound per pot. After spraying the plants are placed on greenhouse benches and are cared for in the usual manner, commensurate with conventional greenhouse practices. From 3 weeks after treatment, the seedling plants are examined and rated according to the rating system provided above. A rating 0 indicates growth as untreated control, a rating 9 indicates death.

[2] = system: Matricaria inodora (MATIN, mayweed); test: Post-emergence herbicidal evaluation; conditions: 3 weeks after treatment
Experimental: as §1

[3] = system: Dolium multiflorum (LOLMU, ryegrass); test: Post-emergence herbicidal evaluation; conditions: rate 0.100 kg/ha, 3 weeks after treatment
Experimental: as §1

[4] = system: Abutilon theophrasti (ABUTH, velvetleaf); test: Post-emergence herbicidal evaluation; conditions: 3 weeks after treatment
Experimental: as §1

[5] = system: Alopecurus myosuroides (ALOMY, black grass); test: Post-emergence herbicidal evaluation; conditions: 3 weeks after treatment
Experimental: as §1

[6] = system: Galium aparine (GALAP, cleaver); test: Post-emergence herbicidal evaluation; conditions: 3 weeks after treatment
Experimental: as §1

[7] = system: Echinochloa grus galli (ECHCG, barnyard grass); test: Post-emergence herbicidal evaluation; conditions: 3 weeks after treatment
Experimental: as §1

[8] = system: Ipomoea hederacea (IPOHE, morning glory); test: Post-emergence herbicidal evaluation; conditions: 3 weeks after treatment
Experimental: as §1

[9] = system: Setaria viridis (SETVI, green foxtail); test: Post-emergence herbicidal evaluation; conditions: 3 weeks after treatment
Experimental: as §1

[10] = system: Triticum aestivum (TRZAW, winter wheat); test: Pre-emergence herbicidal evaluation (crop); conditions: 3 weeks after treatment
From the text: (§2) The pre-emergence herbicidal activity of the compounds of the present invention is exemplified by the following test in which the seeds of a variety of monocotyledonous and dicotyledonous plants are seperately mixed with potting soil and planted on top of approximately one inch of soil in separate post. After planting, the pots are sprayed with the selected aqueous acetone solution. containing test compound in sufficient quantity to provide the equivalent of about 0.025 to 0.4 kg per hectare of test compound per pot. The treated pots are then placed on greenhouse benches, watered and cared for in accordance with conventional greenhouse procedures. From 3 weeks after treatment, the tests are terminated and each pot is examined and rated according to the rating system set forth below. [table] [table]

[11] = system: Glycine max (GLXMA, soyabeans); test: Pre-emergence herbicidal evaluation (crop); conditions: 3 weeks after treatment
From the text: as §2

Zea mays (ZEAMX, maize) = test: Pre-emergence herbicidal evaluation (crop); conditions: 3 weeks after treatment
From the text: as §2

[12] = system: Stellaria media (STEME, chickweed); test: Pre-emergence herbicidal evaluation; conditions: 3 weeks after treatment
From the text: as §2

[13] = system: Matricaria inodora (MATIN, mayweed); test: Pre-emergence herbicidal evaluation; conditions: 3 weeks after treatment
From the text: as §2

[14] = system: Abutilon theophrasti (ABUTH, velvetleaf); test: Pre-emergence herbicidal evaluation; conditions: 3 weeks after treatment
From the text: as §2

[15] = system: Alopecurus myosuroides (ALOMY, black grass); test: Pre-emergence herbicidal evaluation; conditions: 3 weeks after treatment
From the text: as §2

[16] = system: Galium aparine (GALAP, cleaver); test: Pre-emergence herbicidal evaluation; conditions: 3 weeks after treatment
From the text: as §2

[17] = system: Echinochloa grus galli (ECHCG, barnyard grass); test: Pre-emergence herbicidal evaluation; conditions: 3 weeks after treatment
From the text: as §2

[18] = system: Ipomoea hederacea (IPOHE, morning glory); test: Pre-emergence herbicidal evaluation; conditions: 3 weeks after treatment
From the text: as §2

[19] = system: Setaria viridis (SETVI, green foxtail); test: Pre-emergence herbicidal evaluation; conditions: 3 weeks after treatment
From the text: as §2

Compound: Cc1cc(OCC=C(Cl)SC(F)(F)F)nc(Oc2cc(C(F)(F)F)nn2C)c1 [Example 5]
- STEME rating ([1]; rate 0.025 kg/ha): 4 (4 - Injury)
- STEME rating ([1]; rate 0.100 kg/ha): 5 (5 - Definite injury)
- STEME rating ([1]; rate 0.400 kg/ha): 7 (7 - Good herbicidal effect)
- MATIN rating ([2]; rate 0.025 kg/ha): 6 (6 - Herbicidal effect)
- MATIN rating ([2]; rate 0.100 kg/ha): 7 (7 - Good herbicidal effect)
- MATIN rating ([2]; rate 0.400 kg/ha): 7 (7 - Good herbicidal effect)
- LOLMU rating [3]: 8 (8 - Approaching complete kill)
- ABUTH rating ([4]; rate 0.025 kg/ha): 7 (7 - Good herbicidal effect)
- ABUTH rating ([4]; rate 0.100 kg/ha): 8 (8 - Approaching complete kill)
- ABUTH rating ([4]; rate 0.400 kg/ha): 8 (8 - Approaching complete kill)
- ALOMY rating ([5]; rate 0.025 kg/ha): 6 (6 - Herbicidal effect)
- ALOMY rating ([5]; rate 0.100 kg/ha): 7 (7 - Good herbicidal effect)
- ALOMY rating ([5]; rate 0.400 kg/ha): 8 (8 - Approaching complete kill)
- GALAP rating ([6]; rate 0.025 kg/ha): 7 (7 - Good herbicidal effect)
- GALAP rating ([6]; rate 0.100 kg/ha): 8 (8 - Approaching complete kill)
- GALAP rating ([6]; rate 0.400 kg/ha): 8 (8 - Approaching complete kill)
- ECHCG rating ([7]; rate 0.025 kg/ha): 7 (7 - Good herbicidal effect)
- ECHCG rating ([7]; rate 0.100 kg/ha): 8 (8 - Approaching complete kill)
- ECHCG rating ([7]; rate 0.400 kg/ha): 8 (8 - Approaching complete kill)
- IPOHE rating ([8]; rate 0.025 kg/ha): 9 (9 - Complete kill)
- IPOHE rating ([8]; rate 0.100 kg/ha): 9 (9 - Complete kill)
- IPOHE rating ([8]; rate 0.400 kg/ha): 9 (9 - Complete kill)
- SETVI rating ([9]; rate 0.025 kg/ha): 9 (9 - Complete kill)
- SETVI rating ([9]; rate 0.100 kg/ha): 9 (9 - Complete kill)
- SETVI rating ([9]; rate 0.400 kg/ha): 9 (9 - Complete kill)
- TRZAW rating ([10]; rate 0.025 kg/ha): 2 (2 - Slight effect)
- TRZAW rating ([10]; rate 0.100 kg/ha): 3 (3 - Moderate effect)
- TRZAW rating ([10]; rate 0.400 kg/ha): 6 (6 - Herbicidal effect)
- GLXMA rating ([11]; rate 0.025 kg/ha): 2 (2 - Slight effect)
- GLXMA rating ([11]; rate 0.100 kg/ha): 2 (2 - Slight effect)
- GLXMA rating ([11]; rate 0.400 kg/ha): 3 (3 - Moderate effect)
- ZEAMX rating (Zea mays (ZEAMX, maize); rate 0.025 kg/ha): 2 (2 - Slight effect)
- ZEAMX rating (Zea mays (ZEAMX, maize); rate 0.100 kg/ha): 3 (3 - Moderate effect)
- ZEAMX rating (Zea mays (ZEAMX, maize); rate 0.400 kg/ha): 4 (4 - Injury)
- STEME rating ([12]; rate 0.025 kg/ha): 9 (9 - Complete kill)
- STEME rating ([12]; rate 0.100 kg/ha): 9 (9 - Complete kill)
- STEME rating ([12]; rate 0.400 kg/ha): 9 (9 - Complete kill)
- MATIN rating ([13]; rate 0.025 kg/ha): 8 (8 - Approaching complete kill)
- MATIN rating ([13]; rate 0.100 kg/ha): 8 (8 - Approaching complete kill)
- MATIN rating ([13]; rate 0.400 kg/ha): 9 (9 - Complete kill)
- ABUTH rating ([14]; rate 0.025 kg/ha): 5 (5 - Definite injury)
- ABUTH rating ([14]; rate 0.100 kg/ha): 8 (8 - Approaching complete kill)
- ABUTH rating ([14]; rate 0.400 kg/ha): 8 (8 - Approaching complete kill)
- ALOMY rating ([15]; rate 0.025 kg/ha): 7 (7 - Good herbicidal effect)
- ALOMY rating ([15]; rate 0.100 kg/ha): 8 (8 - Approaching complete kill)
- ALOMY rating ([15]; rate 0.400 kg/ha): 8 (8 - Approaching complete kill)
- GALAP rating ([16]; rate 0.025 kg/ha): 5 (5 - Definite injury)
- GALAP rating ([16]; rate 0.100 kg/ha): 7 (7 - Good herbicidal effect)
- GALAP rating ([16]; rate 0.400 kg/ha): 7 (7 - Good herbicidal effect)
- ECHCG rating ([17]; rate 0.025 kg/ha): 6 (6 - Herbicidal effect)
- ECHCG rating ([17]; rate 0.100 kg/ha): 8 (8 - Approaching complete kill)
- ECHCG rating ([17]; rate 0.400 kg/ha): 9 (9 - Complete kill)
- IPOHE rating ([18]; rate 0.025 kg/ha): 8 (8 - Approaching complete kill)
- IPOHE rating ([18]; rate 0.100 kg/ha): 9 (9 - Complete kill)
- IPOHE rating ([18]; rate 0.400 kg/ha): 9 (9 - Complete kill)
- SETVI rating ([19]; rate 0.025 kg/ha): 8 (8 - Approaching complete kill)
- SETVI rating ([19]; rate 0.100 kg/ha): 9 (9 - Complete kill)
- SETVI rating ([19]; rate 0.400 kg/ha): 9 (9 - Complete kill)
